The subject of data set [1] is HeLa LTR β-Gal cells. In words: Cellular toxicity in parallel plates, tetrazolium dye (XTT) cell viability end point. On the procedure: The fold increase in activity was calculated as a relative decrease in EC50 to the Week 0 material. Chicago Sky Blue was included as a positive control for inhibition of viral attachment.
HIV Attachment Assay: A crude serum sample dialyzed against Buffer A, the dialyzed 66% ammonium sulfate pellet, and DEAE-Blue fractions 12, 14, 60, 62, 64, and 66 were analyzed for anti-HIV activity in a virus attachment assay. These fractions were diluted in Buffer A to a 2× high test concentration and analyzed for anti-HIV activity in a cell attachment assay that utilizes a galactosidase reporter to measure virus attachment and infection. Sister plates were used to evaluate fraction toxicity using an XTT based end point. Briefly, on the day prior to compound and virus addition, 100 μL of HeLa LTR β-Gal cells at a density of 1×10^4/well in 10% complete DMEM were plated in 96-well flat bottomed plates and incubated overnight at 37° C./5% CO2. Duplicate plates were seeded in order to evaluate efficacy and toxicity in parallel. Following the overnight incubation, selected protein fractions diluted to a high test concentration in culture media and were further diluted in ½ log increments such that a total of 6 concentrations were evaluated.
Medium was removed and 50 μL of the prepared compound dilutions were added in triplicate to both plates. A volume of 50 μL of 10% complete DMEM was added to the virus control wells and 100 μL was added to the cell control wells. Plates were incubated for approximately 15-30 minutes while virus (HIV-1 IIIB) was being prepared. The appropriate titer of virus used in the assay was determined and prepared and 50 μL was then added to the wells containing compound and the virus control wells on the efficacy plate. On the toxicity plate, 50 μL of 10% complete DMEM was added to these same wells. Plates were incubated for 2 hours at 37° C./5% CO2. […] Following the washing steps, 200 μL of 10% complete DMEM was added to all wells and the plates were incubated at 37° C./5% CO2 for 48 hours. The toxicity plates were evaluated by the addition of the tetrazolium dye XTT which is converted by mitochondrial enzymes in viable cells to a soluble formazan product. Efficacy plates were evaluated by the chemilluminescence detection assay.
A general note: Tetrazolium dyes change colour on reduction, which living cells bring about.

For data set [2], the system named is HIV-1 IIIB. Briefly: microbe, parasite or virus in culture. Format: cell-based. Here is the method: Antibody depletion experiments were conducted on the product prepared as described in Example 3 by the panning technique as follows. […] The plate was incubated for 3 hours at room temperature. Following the incubation, the antibodies and PBS were removed and 200 μL of blocking solution (0.05% Tween 20, 10 mg/mL BSA in PBS) was added and the plate was incubated overnight at 4° C. Following the overnight incubation, the wells were washed 5 times with wash buffer (PBS plus 0.05% Tween-20). One hundred fifty microliters (150 μL) of the serum product (designated VR-30) was added to each of the wells and the plate was incubated for 2 hours at 37° C.
The serum was then removed and used in the HIV-β-galactosidase attachment assay. The depleted material was evaluated for activity in parallel with undepleted VR-30 (VR-30 Std Treatment) and mock-depleted VR-30 (VR-30 PBS).
The anti-HIV-activity of the initial serum sample is determined by: (1) measuring the protein concentration of the serum fraction using Bradford or Lowery based method for determining protein concentration; (2) determining the activity of the fraction using established in vitro anti-viral assay (attachment assay); (3) assigning a unit of activity to the fraction based on the amount of protein needed to achieve a 50% inhibition of viral replication/infectivity (IC50). This unit can be used as a baseline to track the fold purification obtained through the fractionation process.
Efficacy plates were evaluated by the chemilluminescence detection assay.
All EC50's in FIG. 2 and Table IV are the concentration of total protein (μg/ml) in a given fraction that inhibited viral replication in the attachment assay to 50% of the no compound control.

In data set [3] the test system is monocytes and macrophages. The conditions noted are these: antiviral models and cytokine induction from monocytes and macrophages; cited from earlier work.

By IC50 is commonly meant the concentration that inhibits the measured activity by half. In general, EC50 refers to the concentration that produces a half-maximal response. A higher EC50 goes with a less potent agent.

In brackets after ≈: the same amount, converted by molar mass.

As to `COc1cc(-c2ccc(/N=N/c3ccc4c(S(=O)(=O)O)cc(S(=O)(=O)O)c(N)c4c3O)c(OC)c2)ccc1/N=N/c1ccc2c(S(=O)(=O)O)cc(S(=O)(=O)O)c(N)c2c1O` [Chicago Sky Blue], the TC50 in data set [1] (Table I, control compounds) is greater than 10 µg/mL; in data set [1] (Table II, 50% cellular toxicity, XTT), greater than 10000 µg/mL; in data set [1] (Table V, XTT toxicity plates), greater than 10 µg/mL. Moreover, 1.3 µg/mL (≈ 1.44 µM) corresponded to half-maximal inhibition in data set [2] (Human immunodeficiency virus 1, IIIB, HeLa) (IC50). Besides, the concentration for a half-maximal effect (EC50) in data set [2] (Human immunodeficiency virus 1, IIIB, HeLa, Table II, total protein for 50% inhibition of HIV attachment and replication, triplicate) was 100 µg/mL (≈ 111 µM); in data set [2] (Human immunodeficiency virus 1, IIIB, HeLa, Table V, total protein inhibiting viral replication to 50% of no compound control, HIV-1 IIIB), 0.6 µg/mL (≈ 0.663 µM).

As for `CCOCc1nc2c(N)nc3ccccc3c2n1CC(C)(C)O` [Fraction S-28463, 4-Amino-otec,-dimethyl-2-ethoxymethyl-lH-imidazo[4,5-c]quinoline-1-ethanol], the “potency relative to imiquimod” value in data set [3] was “about 100 fold”.

On to Dextran Sulfate, for which, in data set [1] (Table I, control compounds), the TC50 is greater than 25 µg/mL. In data set [2] (Table I, control compounds), this molecule gave an IC50 of 0.65 µg/mL.
